Measured values from a melting point compilation (Tetko et al.; mined from patent text by program, amines drawn as free bases though some values may be those of a salt).

Row | melting point [°C] | Compound
1 | 162 to 164 | COc1ccc2nc(Cl)cc(C=CN(C)C)c2c1
2 | 157 to 158 | O=C(O)CCCCn1ccnc1
3 | > 300 | O=C(O)c1cc(-c2ccccc2S(=O)(=O)Cl)c2ccc3c(-c4ccccc4S(=O)(=O)Cl)cc(C(=O)O)nc3c2n1
4 | 177 to 178 | CONC(=O)Cc1ccccc1Nc1c(Cl)cccc1Cl
5 | 96.5 to 97.3 | CCC[C@H]1CC[C@H](c2ccc(-c3ccccc3)c(F)c2)CC1
6 | 265 to 266 | O=C(O)c1sc2ccc(Br)cc2c1-c1ccccc1
7 | 125 to 126 | Cc1ccc(S(=O)(=O)OC[C@H]2CC[C@@H](COS(=O)(=O)c3ccc(C)cc3)O2)cc1
8 | 188 | O=C1c2ccccc2C(=O)N1CCCS(=O)(=O)c1ccc(Cl)cc1
9 | 65 | COC(=O)OCc1cnc(C)c(OC(=O)OC)c1
10 | 169 | O=C(NCCN1CCC(O)(c2ccc(Cl)cc2)CC1)c1ccccc1
11 | 83 to 84 | CCOC(=O)CON(C)C(=S)Nc1cc(Cl)ccc1C
12 | 147 to 148 | O=C(c1c(Cl)cccc1[N+](=O)[O-])n1ccnc1-c1ccccc1
13 | 110 to 111 | CCOC(=O)C1=C(C)Nc2ccnc(OC(C)C)c2C1c1cccs1 (centres undefined)
14 | 127 to 128 | CCCOC(=O)C1=C(C)NC(C)=C(C(=O)OC)C1c1ccccc1[N+](=O)[O-] (centres undefined)
15 | 117 to 119 | Cc1c(SCCN2CCOCC2)ccnc1CSc1nc2ccccc2n1C(=O)N(C)C
16 | 148 to 150 | CN(C)C=Nc1nc(CN2CCN(C(c3ccccc3)c3ccccc3)CC2)cs1
17 | 84 to 86 | Cc1nc(-c2ccccc2)nc(-c2cccc([N+](=O)[O-])c2)c1C(=O)OCCO
18 | 97 | COc1ccc(C2CC[N+]([O-])(CCC3CCOc4ccccc43)CC2)cc1OC (centres undefined)
19 | 94 to 96 | N#CCc1cc2cc(Br)ccc2s1
20 | 206 | CCOC(=O)c1c(C)c(C#N)c(N)c(C#N)c1C
21 | 70 to 73 | O=Cc1ccc(-c2ccnc(-c3ccc(OC(F)(F)F)cc3)n2)cc1
22 | 62 | O=[N+]([O-])c1cc(Br)cc(F)c1O

Row | melting point [°C] | Compound
23 | 143 to 144 | COC(=O)c1ccc(CC(=O)c2cc(OC)c3c(c2)C(C)(C)CCC3(C)C)cc1
24 | 127 | COc1cccc(CN=C(Cc2ccccc2)N2CC3C(=O)CCC(c4ccccc4)(c4ccccc4)C3C2)c1 (centres undefined)
25 | 225 to 227 | NC(=S)Nc1cc2ccccc2cn1
26 | 94 to 96 | CS(=O)(=O)c1ccc(-n2nc(-c3ccc(O)cc3O)c3ccc(O)cc32)cc1
27 | 140 to 144 | Nc1c(Cl)cc(C(=CC(=O)N2CCOCC2)c2ccc(Cl)cc2)cc1Cl
28 | 77 | O=C(Cc1ccc(O)c(Cl)c1)Oc1cc(Cl)c(Cl)cc1Cl
29 | 88 to 90 | CC(C)(C)OC(=O)C(ON1CCNC1=Nc1c(Cl)cccc1Cl)c1ccccc1 (centres undefined)
30 | 202 | O=S(=O)(c1cccc(-c2cc(-c3nc(-c4ccc(C(F)(F)F)cc4)cc(C(F)(F)F)n3)ccn2)c1)N1CCOCC1
31 | 121 to 122 | Brc1c(-c2ccccc2)n[nH]c1Sc1ccccc1
32 | 191 to 193 | Cc1cc(Cc2ccccc2)nc(Nc2ccc(C(=O)NN)c(F)c2)n1
33 | 179 to 180 | CC(Sc1nc(N)cc(Cl)n1)c1cc2ccccc2cn1 (centres undefined)
34 | 179 to 181 | COP(=O)(Cc1c(Cl)c(Cl)c(CP(=O)(OC)OC)c(Cl)c1Cl)OC
35 | 91 | C(=Nc1cccc2ccccc12)=Nc1cccc2ccccc12
36 | 96 | CCCc1nc(C(=O)CC)c(C#N)n1C(c1ccccc1)(c1ccccc1)c1ccccc1
37 | 120 to 122 | O=S(c1ccccc1)C1O[C@H](COCc2ccccc2)[C@@H](OCc2ccccc2)[C@H](OCc2ccccc2)[C@H]1OCc1ccccc1 (some centres undefined)
38 | 215 to 219 | O=c1cc(O)nc2sc(CCC3CCCCC3)nn12
39 | 163 to 164 | O=[N+]([O-])c1ccc(C2OCc3cc(Br)ccc3O2)cc1 (centres undefined)
40 | 194 to 195 | O=C1CC(c2ccc(O)cc2)Cc2ccccc21 (centres undefined)
41 | 46 to 48 | COC(=O)CCc1cc(Cl)ccc1C(=O)CCCNC(C)=O
42 | 130 to 131 | CS(=O)(=O)c1ccc(C2=C(c3cccc(F)c3)C(=O)OC23CC3)cc1
43 | 127 to 131 | COc1ccc(C(=O)Cc2c(Cl)cncc2Cl)c2c1OC(C)(C)C2
44 | 152 to 154 | Cc1ccc(Cl)c(Nc2ccccc2C(=O)CS(C)=O)c1Cl (centres undefined)

Row | melting point [°C] | Compound
45 | 307 to 308 | O=C1NC(=O)C(=Cc2ccc(-c3ccc(O)c(C45CC6CC(CC(C6)C4)C5)c3)cc2)S1
46 | 151 to 153 | CC(C)(C)[Si](C)(C)OCCCC(=O)c1cc(-c2ccc(S(N)(=O)=O)cc2)n(C2CCCCC2)n1
47 | 110 to 111 | COC(=O)c1cc(O)c(O)c(OC)c1
48 | 56 to 58 | CCOC(=O)C(NC(=O)CSC)C(=O)OCC
49 | 176 to 179 | COc1ccccc1NC1=NN(S(=O)(=O)c2ccc(C)cc2)CC1
50 | 173 to 175 | O=C1CN(c2ccc(C(Br)C(Br)c3ccccc3)cc2OCc2ccccc2)S(=O)(=O)N1 (centres undefined)
51 | 160 to 162 | O=C1[C@H]2CCC[C@H]2N(C(=O)CBr)c2ccccc2N1Cc1ccc([N+](=O)[O-])cc1 (relative stereo)
52 | 105 to 106 | CCOC(=O)c1nn(-c2c(Cl)cc(C(F)(F)F)cc2Cl)cc1OC(F)(F)C(F)Cl (racemic)
53 | 274 to 276 | O=C(O)CCC(=O)N1CCc2cc(S(=O)(=O)N3CCN(c4cccc(C(F)(F)F)c4)CC3)ccc21
54 | 283 to 285 | CC1(N2C(=O)c3cccc(NC(=O)c4cccc(Cl)c4)c3C2=O)CCC(=O)NC1=O (centres undefined)
55 | > 260 | N#Cc1cnc2cc3cc(O)c(O)cc3cc2c1Nc1ccc(Cl)cc1Cl
56 | 148 to 150 | CCCCn1c(=O)c2c(ncn2S(=O)(=O)c2ccc(NO)cc2)n(CCCC)c1=O
57 | 105 to 107 | CCOC(=O)C(=O)Nc1cccc2ccccc12
58 | 151 to 152 | CC(C)N1CC2(COc3ccc([N+](=O)[O-])cc3OC2)OC1c1ccccc1 (centres undefined)
59 | 59 to 61 | OCC1=Cc2cccc(OCc3ccccc3)c2CC1
60 | 165 to 168 | CCCc1c(OCCCc2ccc3cc(OC)c(OC)cc3c2)ccc(C(=O)O)c1O
61 | 135 to 140 | CC(=O)c1c[nH]c2cc(O)ccc12
62 | 162 | O=c1n(C2CCCCC2)c2cc(Cl)ccc2n1S(=O)(=O)c1ccc([N+](=O)[O-])cc1
63 | 164 to 165 | NC(=O)CNC(=O)c1ccc(-c2cccc3cc(COc4cccc(C(F)(F)F)c4)sc23)cc1
64 | > 330 | Cc1ccc2[nH]c3c(c2c1)CC(=O)Nc1cccnc1-3
65 | 140 to 143 | CC1CCN(c2cc(F)cc(C(=O)Nc3ccc(OCc4n[nH]c(=O)n4-c4ccccc4)c4ccccc34)c2)CC1

Row | Compound | melting point [°C]
66 | NCC(=O)NCC(=O)Nc1ccc(Cl)cc1C(=O)c1ccccc1 | 136 to 138
67 | CN(C)C=C1N=C(c2ccccc2Cl)c2cc(Cl)ccc2N(C)C1=O | 199 to 200
68 | CCN(CC)C(=O)NC1CC2c3cccc4[nH]c(CC#CO)c(c34)CC2N(C)C1 (centres undefined) | 151 to 154
69 | CN1C(=O)N(c2ccc(C#N)c(C(F)(F)F)c2)C(=O)C1(CF)CF | 137 to 138
